Structures can show the parent of a compound that is named as a salt.
Assays:
E. cloacae P99 = test: MIC of compounds alone, broth microdilution; type: cell-based; details: Enterobacter cloacae; strain P99 (AmpC); read-out: MIC compounds of the invention alone
Description: (§1) Compounds of the present invention were assessed against genotyped bacterial strains alone or in combination with the β-lactam ceftazidime (CAZ). […] Briefly, compounds alone according to the invention were prepared in DMSO and spotted (2 μL each) on sterile polystyrene plates (Corning, 3788). […] Log phase bacterial suspensions were adjusted to a final density of 5×10^5 cfu/mL in cation-adjusted Mueller-Hinton broth (Becton-Dickinson) and added to each well (98 μL). Microplates were incubated for 16-20 h at 35° C. in ambient air. The MIC of the compounds was defined as the lowest concentration of said compounds that prevented bacterial growth as read by visual inspection.

E. coli 190317 = test: MIC of compounds alone, broth microdilution; type: cell-based; details: Escherichia coli; strain 190317 (TEM-1, SHV-12, CTX-M-15, OXA-1); read-out: MIC compounds of the invention alone
Description: as §1

E. coli RGN238 [1] = test: MIC of compounds alone, broth microdilution; type: cell-based; details: Escherichia coli, RGN238, read-out: MIC compounds of the invention alone
Description: as §1

P. aeruginosa CIP107051 [2] = test: MIC of compounds alone, broth microdilution; type: cell-based; details: Pseudomonas aeruginosa; strain CIP107051 (TEM-24); read-out: MIC compounds of the invention alone
Description: as §1

AmpC (PAE) = molecular target: T1, AmpC (PAE) (Pseudomonas aeruginosa, UniProt P24735); test: biochemical; parameters: species or system P. aeruginosa
T1 construct: made in house; host or cells: E. coli expression vector
Description: Method 1: β-lactamase Inhibitory Activity, Determination of IC50 (Table 1)
Enzyme activity was monitored by spectrophotometric measurement of nitrocefin (NCF—TOKU-E, N005) hydrolysis at 485 nm, at room temperature and in assay buffer A: 100 mM Phosphate pH7, 2% glycerol and 0.1 mg/mL Bovine serum albumin (Sigma, B4287). Enzymes were cloned in E. coli expression vector, expressed and purified in house using classical procedures. To a transparent polystyrene plate (Corning, 3628) were added in each well 5 μL DMSO or inhibitor dilutions in DMSO and 80 μL enzyme in buffer A. Plates were immediately read at 485 nm in a microplate spectrophotometer (BioTek, PowerWave HT) to enable background subtraction. After 30 min of pre-incubation at room temperature, 15 μL of NCF (200 μM final) were finally added in each well. Final enzyme concentrations were 0.1 nM (TEM-1), 0.075 nM (SHV-1), 0.4 nM (CTX-M-15), 1 nM (KPC-2), 0.2 nM (P99 AmpC), 0.2 nM (CMY-37), 0.4 nM (AmpC P. aeruginosa), 0.2 nM (OXA-1), 1.2 nM (OXA-11), 0.4 nM (OXA-15) and 0.3 nM (OXA-48). After 20 min incubation at room temperature, plates were once again read at 485 nm. Enzyme activity was obtained by subtracting the final signal by the background, and was converted to enzyme inhibition using non inhibited wells. IC50 curves were fitted to a classical Langmuir equilibrium model with Hill slope using XLFIT (IDBS).

K. pneumoniae UFR77 = test: MIC of ceftazidime alone and in combination with compounds (synergy), broth microdilution; type: cell-based; details: MIC of ceftazidime with compound fixed at 4 μg/mL; strain UFR77 (CMY-2)
Description: as §1

K. pneumoniae BAA-1898 [3] = test: as above; type: cell-based; details: MIC of ceftazidime with compound fixed at 4 μg/mL; strain BAA-1898 (TEM-1, SHV-11, SHV-12, KPC-2)
Description: as §1

P. aeruginosa CIP105250 [4] = test: as above; type: cell-based; details: MIC of ceftazidime with compound fixed at 4 μg/mL; strain CIP105250 (OXA-15)
Description: as §1

E. coli RGN238 [5] = test: as above; type: cell-based; details: MIC of ceftazidime with compound fixed at 4 μg/mL; strain RGN238 (OXA-1)
Description: as §1

E. coli 131119 [6] = test: as above; type: cell-based; details: MIC of ceftazidime with compound fixed at 4 μg/mL; strain 131119 (TEM-1, OXA-48)
Description: as §1

E. coli UFR74 = test: as above; type: cell-based; details: MIC of ceftazidime with compound fixed at 4 μg/mL; strain UFR74 (SHV-1, DHA-1)
Description: as §1

K. pneumoniae 6299 [7] = test: as above; type: cell-based; details: MIC of ceftazidime with compound fixed at 4 μg/mL; strain 6299 (TEM-1, SHV-11, OXA-163)
Description: as §1

P. aeruginosa CIP107051 [8] = test: as above; type: cell-based; details: MIC of ceftazidime with compound fixed at 4 μg/mL; strain CIP107051 (TEM-24)
Description: as §1

K. pneumoniae BAA-1898 [9] = test: microbe, parasite or virus in culture; type: cell-based; details: Klebsiella pneumoniae, BAA1898, read-out: MIC compounds of the invention alone
Description: as §1

P. aeruginosa CIP105250 [10] = test: microbe, parasite or virus in culture; type: cell-based; details: Pseudomonas aeruginosa, CIP105250, read-out: MIC compounds of the invention alone
Description: as §1

E. coli 131119 [11] = test: microbe, parasite or virus in culture; type: cell-based; details: Escherichia coli, 131119, read-out: MIC compounds of the invention alone
Description: as §1

K. pneumoniae 6299 [12] = test: microbe, parasite or virus in culture; type: cell-based; details: Klebsiella pneumoniae, 6299, read-out: MIC compounds of the invention alone
Description: as §1

E. coli UFR52 = test: MIC of ceftazidime alone and in combination with compounds (synergy), broth microdilution; type: cell-based; details: MIC of ceftazidime with compound fixed at 4 μg/mL; strain UFR52 (TEM-1, SHV-12, IMP-8)
E. cloacae UFR38 = test: as above; type: cell-based; details: MIC of ceftazidime with compound fixed at 4 μg/mL; strain UFR38 (CTX-M-15, NDM-1)
P. aeruginosa UFR93 = test: as above; type: cell-based; details: MIC of ceftazidime with compound fixed at 4 μg/mL; strain UFR93 (derepressed AmpC, OprD−, MexAB+, MexXY+)
P. aeruginosa UFR59 = test: as above; type: cell-based; details: MIC of ceftazidime with compound fixed at 4 μg/mL; strain UFR59 (IMP-29)

T1 sequence (P24735 27-397): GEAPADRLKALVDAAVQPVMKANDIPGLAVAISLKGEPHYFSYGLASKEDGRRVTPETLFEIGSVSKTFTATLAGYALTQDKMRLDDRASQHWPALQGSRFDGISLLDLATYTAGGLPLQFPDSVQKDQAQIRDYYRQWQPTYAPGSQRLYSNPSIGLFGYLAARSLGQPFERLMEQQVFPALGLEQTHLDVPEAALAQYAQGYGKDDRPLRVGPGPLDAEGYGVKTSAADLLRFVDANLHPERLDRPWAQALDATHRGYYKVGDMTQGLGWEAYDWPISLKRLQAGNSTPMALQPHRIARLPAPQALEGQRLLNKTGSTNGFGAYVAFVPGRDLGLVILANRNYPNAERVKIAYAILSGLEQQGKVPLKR

Structure (SMILES) | MIC (E. cloacae P99) [µg/mL] | MIC (E. coli 190317) [µg/mL] | MIC (E. coli RGN238 [1]) [µg/mL] | MIC (P. aeruginosa CIP107051 [2]) [µg/mL] | IC50 (AmpC (PAE)) [µM] | MIC, combination of CAZ and compounds of the invention at 4 μg/mL (K. pneumoniae UFR77) [µg/mL] | MIC, combination of CAZ and compounds of the invention at 4 μg/mL (K. pneumoniae BAA-1898 [3]) [µg/mL] | MIC, combination of CAZ and compounds of the invention at 4 μg/mL (P. aeruginosa CIP105250 [4]) [µg/mL] | MIC, combination of CAZ and compounds of the invention at 4 μg/mL (E. coli RGN238 [5]) [µg/mL] | MIC, combination of CAZ and compounds of the invention at 4 μg/mL (E. coli 131119 [6]) [µg/mL] | MIC, combination of CAZ and compounds of the invention at 4 μg/mL (E. coli UFR74) [µg/mL] | MIC, combination of CAZ and compounds of the invention at 4 μg/mL (K. pneumoniae 6299 [7]) [µg/mL] | MIC, combination of CAZ and compounds of the invention at 4 μg/mL (P. aeruginosa CIP107051 [8]) [µg/mL] | MIC (K. pneumoniae BAA-1898 [9]) [µg/mL] | MIC (P. aeruginosa CIP105250 [10]) [µg/mL] | MIC (E. coli 131119 [11]) [µg/mL] | MIC (K. pneumoniae 6299 [12]) [µg/mL] | MIC, combination of CAZ and compounds of the invention at 4 μg/mL (E. coli UFR52) [µg/mL] | MIC, combination of CAZ and compounds of the invention at 4 μg/mL (E. cloacae UFR38) [µg/mL] | MIC, combination of CAZ and compounds of the invention at 4 μg/mL (P. aeruginosa UFR93) [µg/mL] | other results
CNC(=O)CON=C1C[C@@H](C(N)=O)N2C[C@@H]1N(OS(=O)(=O)[O-])C2=O.[Na+] (mixture of isomers) [Example 2, sodium [(2S,5S)-2-carbamoyl-4-[2-(methylamino)-2-oxo-ethoxy]imino-7-oxo-1,6-diazabicyclo[3.2.1]octan-6-yl] sulfate] | > 32 | 4 | > 32 | > 32 | 0.11 | 32 | 64 | 64 | ≤0.25 | ≤0.25 | 0.5 | 2 | 16 | > 32 | > 32 | 8 | > 32 | – | – | – | –
NC[C@@H]1CC(=NOCC(N)=O)[C@@H]2CN1C(=O)N2OS(=O)(=O)O (mixture of isomers) [Example 5, sodium and 2,2,2-trifluroacetate [(2S,5S)-4-(2-amino-2-oxo-ethoxy)imino-2-(azaniumylmethyl)-7-oxo-1,6-diazabicyclo[3.2.1]octan-6-yl] sulfate] | 0.063 | 0.25 | > 32 | 4 | 12 | 2 | 0.5 | ≤0.25 | ≤0.25 | <0.25 | 1 | 0.25 | <0.25 | > 32 | 32 | > 32 | > 32 | ≤0.25 | <0.25 | <0.25 | MIC, combination of CAZ and compounds of the invention at 4 μg/mL (P. aeruginosa UFR59): <0.25 µg/mL
NC[C@@H]1CC(=O)[C@@H]2CN1C(=O)N2OS(=O)(=O)O [Example 6, 2,2,2-trifluroacetate and sodium [(2S,5S)-2-(azaniumylmethyl)-4,7-dioxo-1,6-diazabicyclo[3.2.1]octan-6-yl] sulfate] | 1 | 1 | > 32 | 8 | 38 | 2 | 1 | 2 | ≤0.25 | ≤0.25 | 0.5 | 2 | 0.125 | > 32 | 16 | 2 | > 32 | <0.25 | <0.25 | 0.5 | MIC, combination of CAZ and compounds of the invention at 4 μg/mL (P. aeruginosa UFR59): ≤0.25 µg/mL
